In US20260263573A1, “Tumor Immunotherapy” (PingShan Translational Medicine Center, Shenzhen Bay …, priority 2022, published 2026):

Test system: B16-OVA melanoma
Experiment: Lung metastasis model
Assay type: in vivo, mice
Conditions: day 20 after tail vein injection of B16-OVA
Method: Furthermore, a lung metastasis model was selected to evaluate the prevention of lung colonization of melanoma with nanocomposites (FIG. 21a). The administration was similar to that of the tumor model, except that 5×10^5 B16-OVA cells per mouse were injected via tail vein 7 days after the end of the last administration. The mice were dissected on day 20 after injection, the lungs of the mice were removed, and the lungs were washed with Fekete's eluent (70 mL of alcohol, 10 mL of formaldehyde, 5 mL of glacial acetic acid, 15 mL of water). After decoloration, lung tumor nodules were counted. Finally, all tissues were sent to Univ company for tissue section and H&E staining analysis.

Ac-WMβASIINFEKL (WMXSIINFEKL; N-terminal acetyl; beta-alanine; N-terminal Acetylation and Xaa represents a ??-alanine isomer of alanine at the 3AA position; (3)..(3) Xaa is ??-alanine (beta-alanine), an isomer of Alanine) [OVA]
H&E staining of lung tissue: melanoma cell infestation: lung cells infected with melanoma cells were also found
